Experimental data taken from patent publication US11202834B2, “Synthesis and processing of poly(pro-drug) materials for extended drug release and uses thereof” (RENSSELAER POLYTECHNIC INSTITUTE, priority 2018, dated 2021).

Tests used:
[1] = tested on: whole dorsal root ganglion (DRG); assay: neurite extension of whole dorsal root ganglion cultured on scaffolds; type: cell-based; details: DRG on PLLA/PLLA scaffolds with 100 nM bolus of exogenous E2 at the beginning of culture
Procedure: To examine the bioactivity of E2 released during poly(pro-drug) material degradation and the effects of sustained E2 release on neurons, whole dorsal root ganglion (DRG) were cultured on poly(pro-drug) material films to examine the ability of the poly(pro-drug) material to promote neurite extension. To analyze material-derived neurite extension, DRG were cultured onto three types of scaffolds: 1) PLLA fibers electrospun onto a PLLA film (PLLA/PLLA), 2) PLLA fibers electrospun on to a PLLA film with a 100 nM bolus of exogenous E2 at the beginning of culture (PLLA/PLLA+Exo E2), and 3) PLLA fibers electrospun onto a poly(pro-drug) material film (PLLA/P1). […] PLLA fibers were used in this experiment to isolate the effects of E2 released the poly(pro-drug) material as the only factor influencing DRG neurite extension.

[2] = not told

C[C@]12CC[C@@H]3c4ccc(O)cc4CC[C@H]3[C@@H]1CC[C@@H]2O [E2, 17β-Estradiol]
average neurite outgrowth from DRG [1]: 526.7±273.4 μm

poly(L-lactic acid) [PLLA]
Young's modulus (Er) [2]: 5.38±1.06 GPa
